Source: ChEMBL document CHEMBL5532759, “Discovery of dibenzylbutane lignan LCA derivatives as potent anti-inflammatory agents” (RSC Med Chem, 2024)
Active and inactive are the calls of the source. No cut-off for these calls is given here.

Key:
RAW264.7 [1] = test: Antiinflammatory activity in LPS-induced mouse RAW264.7 cells assessed as inhibition of NO release at 20 uM preincubated for 4 hrs followed by LPS addition for 24 hrs by Griess reagent based assay relative to control (reference value: 100 %); assay type: functional; set-up: scale not given: the % may be the effect or the level left; conditions: time 28 hrs
[2] = Cytotoxicity against mouse RAW264.7 cells assessed as survival rate at 20 uM incubated for 24 hrs by CCK-8 assay relative to control (reference value: 100 %); assay type: toxicity, cell-based; conditions: read-out: Survival
Mus musculus [3] = test: Antiinflammatory activity against carrageenan-induced paw edema in ip dosed ICR mouse assessed as reduction in TNF-alpha level by ELISA method; assay type: functional, organism-based; conditions: dose 5-20 mg/kg
RAW264.7 [4] = test: Antiinflammatory activity in LPS-induced mouse RAW264.7 cells assessed as inhibition of IL-6 secretion at 2.5 to 20 uM preincubated for 1 hr followed by LPS addition for 24 hrs by ELISA method; assay type: functional, cell-based; conditions: dose 2.5-20 µM, time 25.0 hrs
RAW264.7 [5] = test: Antiinflammatory activity in LPS-induced mouse RAW264.7 cells assessed as inhibition of IL-1beta secretion at 2.5 to 20 uM preincubated for 1 hr followed by LPS addition for 24 hrs by ELISA method; assay type: functional, cell-based; conditions: dose 2.5-20 µM, time 25.0 hrs
RAW264.7 [6] = test: Antiinflammatory activity in LPS-induced mouse RAW264.7 cells assessed as inhibition of NO release preincubated for 4 hrs followed by LPS addition for 24 hrs by Griess reagent based assay; assay type: functional, cell-based; conditions: dose 2.5-20 µM, time 28.0 hrs
RAW264.7 [7] = test: Inhibition of NF-kappaB signaling in LPS-induced mouse RAW264.7 cells assessed as reduction in IkBalpha degradation preincubated for 1 hr followed by LPS addition for 1 hr by Western blot analysis; assay type: cell-based; conditions: dose 10-20 µM, time 2.0 hrs
Mus musculus [8] = test: Antiinflammatory activity against carrageenan-induced paw edema in ICR mouse assessed as reduction in paw thickness at 5 to 20 mg/kg, ip measured at 60 to 240 mins; assay type: functional, organism-based; conditions: dose 5-20 mg/kg, time 60-240 min
RAW264.7 [9] = test: Inhibition of NF-kB p65 nuclear translocation from cytoplasm to nucleus in mouse RAW264.7 cells at 20 uM preincubated for 1 hr followed by LPS addition for 4 hrs by immunofluorescence assay; assay type: functional, cell-based; conditions: time 5.0 hrs
RAW264.7 [10] = test: Antiinflammatory activity in LPS-induced mouse RAW264.7 cells assessed as inhibition of TNFalpha secretion at 2.5 to 20 uM preincubated for 1 hr followed by LPS addition for 24 hrs by ELISA method; assay type: functional, cell-based; conditions: dose 2.5-20 µM, time 25.0 hrs
Mus musculus [11] = test: Antiinflammatory activity against carrageenan-induced paw edema in ip dosed ICR mouse assessed as reduction in IL-6 level by ELISA method; assay type: functional, organism-based; conditions: dose 5-20 mg/kg
RAW264.7 [12] = test: Antiinflammatory activity in LPS-induced mouse RAW264.7 cells assessed as reduction in IL-6 mRNA level preincubated for 1 hr followed by LPS addition for 24 hrs by RT-qPCR analysis; assay type: functional, cell-based; conditions: dose 10-20 µM, time 25.0 hrs
RAW264.7 [13] = test: Antiinflammatory activity in LPS-induced mouse RAW264.7 cells assessed as reduction in IL-1beta mRNA level preincubated for 1 hr followed by LPS addition for 24 hrs by RT-qPCR analysis; assay type: functional, cell-based; conditions: dose 10-20 µM, time 25.0 hrs
RAW264.7 [14] = test: Antiinflammatory activity in LPS-induced mouse RAW264.7 cells assessed as reduction in TNFalpha mRNA level incubated for 1 hr followed by LPS addition for 24 hrs by RT-qPCR analysis; assay type: functional, cell-based; conditions: dose 10-20 µM, time 25.0 hrs
Mus musculus [15] = test: Antiinflammatory activity against carrageenan-induced paw edema in ip dosed ICR mouse assessed as reduction in IL-1beta level by ELISA method; assay type: functional, organism-based; conditions: dose 5-20 mg/kg
Mus musculus [16] = test: Antiinflammatory activity against carrageenan-induced paw edema in ICR mouse assessed as inhibition of paw swelling at 5 to 20 mg/kg, ip measured after 120 min; assay type: functional, organism-based; conditions: dose 5-20 mg/kg
RAW264.7 [17] = test: Inhibition of NF-kB signaling in LPS-induced mouse RAW264.7 cells assessed as reduction in p65 phosphorylation preincubated for 1 hr followed by LPS addition for 1 hr by Western blot analysis; assay type: cell-based; conditions: dose 10-20 µM, time 2.0 hrs
Mus musculus [18] = test: Antiinflammatory activity against carrageenan-induced paw edema in ICR mouse assessed as reduction in paw thickness at 20 mg/kg, ip measured at 60 to 240 mins; assay type: functional, organism-based; conditions: time 60-240 min
Mus musculus [19] = test: Antiinflammatory activity against carrageenan-induced paw edema in ICR mouse assessed as inhibition of paw swelling at 20 mg/kg, ip measured after 120 min; assay type: functional, organism-based

Structure (SMILES) | Activity (RAW264.7 [1]) [%] | viability at 24 h, 20 µM [2] [%] | also measured
COc1cc(C[C@H](C(=O)NCc2ccc(S(C)(=O)=O)cc2)[C@@H](Cc2cc(OC)c(O)c(OC)c2)C(=O)NCc2ccc(S(C)(=O)=O)cc2)cc(OC)c1O | 63.1 | 70 | 
COc1cc(C[C@H](C(=O)NCc2ncccc2C)[C@@H](Cc2cc(OC)c(O)c(OC)c2)C(=O)NCc2ncccc2C)cc(OC)c1O | 66.3 | 85.1 | 
COc1cccc(CNC(=O)[C@@H](Cc2cc(OC)c(O)c(OC)c2)[C@@H](Cc2cc(OC)c(O)c(OC)c2)C(=O)NCc2cccc(OC)c2)c1 | 44.2 | 100 | 
COc1cc(C[C@H](C(=O)NCc2cccnc2OC)[C@@H](Cc2cc(OC)c(O)c(OC)c2)C(=O)NCc2cccnc2OC)cc(OC)c1O | 51.1 | 69.9 | 
COc1cc(C[C@H](C(=O)NCc2ccc(F)cc2)[C@@H](Cc2cc(OC)c(O)c(OC)c2)C(=O)NCc2ccc(F)cc2)cc(OC)c1O | 43.1 | 103 | 
COc1cc(C[C@H](C(=O)NCc2cccnc2C(F)(F)F)[C@@H](Cc2cc(OC)c(O)c(OC)c2)C(=O)NCc2cccnc2C(F)(F)F)cc(OC)c1O | 55.1 | 90.7 | 
COc1cc(C[C@H](C(=O)NCc2ccc(C(F)(F)F)cc2)[C@@H](Cc2cc(OC)c(O)c(OC)c2)C(=O)NCc2ccc(C(F)(F)F)cc2)cc(OC)c1O | 31.1 | 99.1 | Activity (Mus musculus [3]): Dose-Dependent Effect; Activity (RAW264.7 [4]): Active; Activity (RAW264.7 [5]): Active; Activity (RAW264.7 [6]): Dose-Dependent Effect; inhibition (RAW264.7 [7]): Dose-Dependent Effect; Activity (Mus musculus [8]): Active; inhibition (RAW264.7 [9]): Active; Activity (RAW264.7 [10]): Active; Activity (Mus musculus [11]): Dose-Dependent Effect; Activity (RAW264.7 [12]): Dose-Dependent Effect; Activity (RAW264.7 [13]): Dose-Dependent Effect; Activity (RAW264.7 [14]): Dose-Dependent Effect; Activity (Mus musculus [15]): Dose-Dependent Effect; inhibition (Mus musculus [16]): Active; inhibition (RAW264.7 [17]): Dose-Dependent Effect
COc1cc(C[C@H](C(=O)NCc2ccc(C)cc2)[C@@H](Cc2cc(OC)c(O)c(OC)c2)C(=O)NCc2ccc(C)cc2)cc(OC)c1O | 47 | 95.6 | 
COc1ccc(CNC(=O)[C@@H](Cc2cc(OC)c(O)c(OC)c2)[C@@H](Cc2cc(OC)c(O)c(OC)c2)C(=O)NCc2ccc(OC)cc2OC)c(OC)c1 | 47.6 | 98.4 | 
COc1cc(C[C@H](C(=O)NCc2ccc(F)cc2F)[C@@H](Cc2cc(OC)c(O)c(OC)c2)C(=O)NCc2ccc(F)cc2F)cc(OC)c1O | 46.5 | 97.5 | 
COc1cc(C[C@H](C(=O)NCc2ccccc2)[C@@H](Cc2cc(OC)c(O)c(OC)c2)C(=O)NCc2ccccc2)cc(OC)c1O | 42.6 | 103 | 
COc1cc(C[C@H](C(=O)NCc2ccccc2F)[C@@H](Cc2cc(OC)c(O)c(OC)c2)C(=O)NCc2ccccc2F)cc(OC)c1O | 47.3 | 105 | 
COc1cc(C[C@H](C(=O)NCc2cc(F)cc(F)c2)[C@@H](Cc2cc(OC)c(O)c(OC)c2)C(=O)NCc2cc(F)cc(F)c2)cc(OC)c1O | 43.9 | 97.8 | 
COc1cc(C[C@H](C(=O)NCc2ccncc2F)[C@@H](Cc2cc(OC)c(O)c(OC)c2)C(=O)NCc2ccncc2F)cc(OC)c1O | 67.9 | 95.9 | 
COc1cc(C[C@H](C(=O)NCc2cccc(C)n2)[C@@H](Cc2cc(OC)c(O)c(OC)c2)C(=O)NCc2cccc(C)n2)cc(OC)c1O | 44.7 | 93.3 | 
COc1cc(C[C@H](C(=O)NCc2ccc(F)cn2)[C@@H](Cc2cc(OC)c(O)c(OC)c2)C(=O)NCc2ccc(F)cn2)cc(OC)c1O | 47.1 | 81.3 | 
COc1cc(C[C@H](C(=O)NCc2ccncc2)[C@@H](Cc2cc(OC)c(O)c(OC)c2)C(=O)NCc2ccncc2)cc(OC)c1O | 46.5 | 69.5 | 
COc1cc(/C=C/C(=O)OC[C@H](Cc2cc(OC)c(O)c(OC)c2)[C@@H](COC(=O)/C=C/c2ccc(O)c(OC)c2)Cc2cc(OC)c(O)c(OC)c2)ccc1O | 29.5 | 82.2 | inhibition (RAW264.7 [6]): Dose-Dependent Effect; Activity (Mus musculus [18]): Active; inhibition (Mus musculus [19]): Active
C[C@@H]1C[C@H]2[C@@H]3CCC4=CC(=O)C=C[C@]4(C)[C@@]3(F)[C@@H](O)C[C@]2(C)[C@@]1(O)C(=O)CO [DEXAMETHASONE] | 45.9 | 94.8 | 
COc1cc(C[C@H](C(=O)NCc2cccc(F)c2)[C@@H](Cc2cc(OC)c(O)c(OC)c2)C(=O)NCc2cccc(F)c2)cc(OC)c1O | 41.9 | 99.4 | 
COc1cc(CNC(=O)[C@@H](Cc2cc(OC)c(O)c(OC)c2)[C@@H](Cc2cc(OC)c(O)c(OC)c2)C(=O)NCc2cc(OC)cc(OC)c2)cc(OC)c1 | 49.3 | 99.1 | 
COc1cc(CNC(=O)[C@@H](Cc2cc(OC)c(O)c(OC)c2)[C@@H](Cc2cc(OC)c(O)c(OC)c2)C(=O)NCc2ccc(O)c(OC)c2)ccc1O | 49 | 96.6 | 
COc1cc(C[C@H](C(=O)NCc2cc(C)ccn2)[C@@H](Cc2cc(OC)c(O)c(OC)c2)C(=O)NCc2cc(C)ccn2)cc(OC)c1O | 71.5 | 83 | 
COc1ccc(CNC(=O)[C@@H](Cc2cc(OC)c(O)c(OC)c2)[C@@H](Cc2cc(OC)c(O)c(OC)c2)C(=O)NCc2ccc(OC)cc2)cc1 | 45.9 | 99.9 | 
COc1cc(C[C@H](C(=O)NCc2ccccn2)[C@@H](Cc2cc(OC)c(O)c(OC)c2)C(=O)NCc2ccccn2)cc(OC)c1O | 48.1 | 92.2 | 
